Test results as given in US20060116401A1, “Antibacterial compounds” (AstraZeneca AB, priority 2002, published 2006).
≈ marks a conversion by molar mass, not a printed value.

Tests used:
Type in all cases: cell-based
[1] = system: Staphylococcus aureus MSQS (methicillin sensitive and quinolone sensitive); experiment: MIC, agar dilution, staphylococci (MSQS strain); settings: 10^4 CFU/spot, 37° C., 24 hours
Experimental: (§1) The following results were obtained on a standard in-vitro test system The activity is described in terms of the minimum inhibitory concentration (MIC) determined by the agar-dilution technique with an inoculum size of 10^4 CFU/spot. Typically, compounds are active in the range 0.01 to 256 μg/ml.
(§2) Staphylococci were tested on agar, using an inoculum of 10^4 CFU/spot and an incubation temperature of 37° C. for 24 hours—standard test conditions for the expression of methicillin resistance.

[2] = system: Staphylococcus aureus MRQR (methicillin resistant and quinolone resistant); experiment: MIC, agar dilution, staphylococci (MRQR strain); settings: 10^4 CFU/spot, 37° C., 24 hours
Experimental: as §1, §2

Streptococcus pneumoniae = experiment: MIC, agar with 5% defibrinated horse blood, streptococci; settings: agar + 5% horse blood, 10^4 CFU/spot, 37° C., 5% carbon dioxide, 48 hours
Experimental: as §1
(§3) Streptococci and enterococci were tested on agar supplemented with 5% defibrinated horse blood, an inoculum of 10^4 CFU/spot and an incubation temperature of 37° C. in an atmosphere of 5% carbon dioxide for 48 hours—blood is required for the growth of some of the test organisms. Fastidious Gram negative organisms were tested in Mueller-Hinton broth, supplemented with hemin and NAD, grown aerobically for 24 hours at 37° C., and with an innoculum of 5×10^4 CPU/well.

Haemophilus influenzae = experiment: MIC, fastidious Gram negative organisms in Mueller-Hinton broth; settings: Mueller-Hinton broth with hemin and NAD, aerobic, 24 hours, 37° C.
Experimental: as §1, §3

Moraxella catarrhalis = experiment: as above; settings: Mueller-Hinton broth with hemin and NAD, aerobic, 24 hours, 37° C.
Experimental: as §1, §3

Enterococcus faecium = experiment: MIC, agar with 5% defibrinated horse blood, enterococci; settings: agar + 5% horse blood, 10^4 CFU/spot, 37° C., 5% carbon dioxide, 48 hours
Experimental: as §1, §3

[3] = system: Linezolid Resistant Streptococcus pneumoniae; experiment: MIC, agar with 5% defibrinated horse blood, linezolid resistant streptococci; settings: agar + 5% horse blood, 10^4 CFU/spot, 37° C., 5% carbon dioxide, 48 hours
Experimental: as §1, §3

MIC [1]: 0.5 mg/L (≈ 1.1 µM)
MIC [2]: 0.5 mg/L (≈ 1.1 µM)
MIC (Streptococcus pneumoniae): 0.13 mg/L
MIC (Haemophilus influenzae): 4 mg/L (≈ 8.78 µM)
MIC (Moraxella catarrhalis): 0.5 mg/L (≈ 1.1 µM)
MIC (Enterococcus faecium): 0.5 mg/L
MIC [3]: 1 mg/L
SMILES: O=C1O[C@@H](Cn2ccnn2)CN1c1ccc(-c2ccc(C3=NOC(CO)C3)c(F)c2)c(F)c1 (stereo partly drawn) [Example 4, (5R)-3-{2,3′-Difluoro-4′-[5-(hydroxymethyl)-4,5-dihydroisoxazol-3-yl]-1,1′-biphenyl-4-yl}-5-(1H-1,2,3-triazol-1-ylmethyl)-1,3-oxazolidin-2-one]
